The text below walks through data of article PMC9241695, “Selective Metal Chelation by a Thiosemicarbazone Derivative Interferes with Mitochondrial Respiration and Ribosome Biogenesis in Candida albicans” (Microbiology Spectrum, 2022).

≈ marks a conversion by molar mass, not a printed value.

Assay [1] has as its system C. albicans SC5314. Kind of assay: Antifungal susceptibility testing, microbroth dilution MIC. Conditions: Candida albicans, SC5314; C. albicans wild-type strain; RPMI1640, 35°C, 24 h; read-out: MIC (μg/mL) against fungi SC5314. The class given is cell-based. In outline:
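CLSI microbroth dilution in RPMI1640, final drug range 0.0156–64 μg/mL. Inocula 1 × 10^3 CFU/mL for C. albicans and C. neoformans, 1 × 10^4 CFU/mL for A. fumigatus; 35°C for 24 h (C. albicans) or 48 h (C. neoformans, A. fumigatus). MIC read as visible growth inhibition versus control, in duplicate.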
On the technique in general: In broth dilution the organism is exposed to a series of concentrations in liquid medium.

Assay [2] relates to C. krusei CK1. Kind of assay: Microbroth dilution MIC80. It counts as cell-based, Candida krusei. Conditions: Pichia kudriavzevii, CK1. Summed up:
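CLSI microbroth dilution in RPMI1640, inoculum 1 × 10^3 CFU/mL, compounds 0.0156–64 μg/mL final, 24 h at 35 °C. MIC read as visible growth inhibition versus control, in duplicate.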

Assay [3] has as its system C. albicans SC5314. Kind of assay: Minimal fungicidal concentration (MFC). Conditions: Candida albicans, read-out: MFC against C. albicans SC5314. The class given is cell-based.
Assay [4] has as its system mitochondrial respiratory chain complex III. As to the kind of experiment: Mitochondrial respiratory chain complex activity in isolated mitochondria. Conditions: purified mitochondria, 0.125-1 μg/mL, 6 h. It counts as biochemical, Candida albicans. The protocol:
(§1) Mitochondrial isolation and detection of mitochondrial respiratory chain complex activity. Mitochondria were isolated from C. albicans spheroplasts as previously described (8). A dilution series of 19ak was added to the mitochondrial suspensions to obtain final concentrations of 0, 0.125, 0.25, 0.5, and 1 μg/mL and incubated for 6 h at 30°C. The activities of mitochondrial respiratory chain complexes I-IV were determined by using the Micro Mitochondrial Respiratory Chain Complex Activity Assay Kit (Solarbio, Beijing, China). The concentration of protein was determined using the BCA Protein Assay Kit (Beyotime, Haimen, China).
(§2) Mitochondrial complex activity was expressed as nmol/min/mg protein. […]

Assay [5] deals with mitochondrial respiratory chain complex I. The assay is described as above. It counts as biochemical, Candida albicans. The protocol: as §1, §2
For assay [6], the system named is SOD. As to the kind of experiment: SOD activity in treated cells. Conditions: 0.5 μg/mL or above, 6 h. The class given is cell-based, Candida albicans. The protocol: Determination of SOD activity. SOD activity was measured using the Superoxide Dismutase Activity Assay Kit (Njjcbio, Nanjing, China) following the manufacturer's instructions. An overnight culture of C. albicans SC5314 was adjusted to 1 × 10^7 cells/mL with RPMI1640 medium and treated with 19ak at a final concentration of 0, 0.125, 0.25, 0.5, or 1 μg/mL for 6 h. After collection by centrifugation, the cells were broken by glass beads in extraction buffer and centrifuged at 4°C. The absorbance of the supernatant of each sample was measured with a microplate reader at450 nm.
Determination of catalase (CAT) activity. CAT activity was measured by using a Catalase Assay Kit (Solarbio, Beijing, China) following the manufacturer's instructions. An overnight culture of C. albicans SC5314 was adjusted to 1 × 10^6 cells/mL with RPMI1640 medium and treated as described above for SOD activity.
The decomposition of H2O2 is directly accompanied by a decrease in absorbance at 240 nm, and the difference in absorbance per unit time (ΔA240) is a measure of […]
Quantitative real-time polymerase chain reaction (qPCR) analysis. C. albicans SC5314 cells (1 × 10^6 cells/mL) were incubated with or without 19ak (0.5,2 μg/mL) in RPMI1640 medium for 6 h. Total RNA was extracted using the hot phenol method, and the RNA quality was analyzed using a spectrophotometer (Eppendorf, Hamburg, Germany). […]

The test system of assay [7] is C. albicans SC5314. Kind of assay: Drug resistance study by serial passage. It counts as cell-based, Candida albicans. Conditions: RPMI 1640 medium, 40-day period, passages at 0.5 × MIC.

In general, MIC80 refers to an inhibitory concentration at the 80% level, which refers to growth in some studies and to a panel of isolates in others. Low values mean greater potency, high ones weaker potency. As a reminder, the MFC is the smallest concentration meeting the test's criterion for killing the fungus. `C/C(=N\NC(=S)N(C)C)c1ccccn1` [Compound 19ak]: the MIC in assay [1] was 0.125 µg/mL (≈ 0.562 µM). In addition, in assay [2], the MIC80 amounted to 0.125 µg/mL (≈ 0.562 µM). The minimum fungicidal concentration (MFC) in assay [3] is 64 µg/mL (≈ 288 µM). Further, in assay [4], the “Activity of mitochondrial respiratory chain complex III” value is on record as “slightly inhibited”. In assay [5] (100 μM metal ions, 0.125 or 1 μg/mL 19ak), the “Reduction of NADH dehydrogenase activity with extra metal ions” value is “partially restored”. Besides, in assay [5] (purified mitochondria, 0.125-1 μg/mL, 6 h), the “Activity of mitochondrial respiratory chain complex I (CI, NADH dehydrogenase)” value is “significantly inhibited”. In assay [6], the SOD activity result is on record as “increased”. The “Change of MIC after repeated exposure” value in assay [7] was “did not alter the MIC”.
